Measured values reported in US6743568B2, “Cyanine dyes” (Kabushiki Kaisha Hayashibara Seibutsu Kagaku Kenkyujo, priority 2000, dated 2004).
Like-named read-outs stand apart in the source and are kept apart here.

Assays:
[1] = Solubility of cyanine dye in DAA at 20° C.; type: physicochemical; conditions: in diacetone alcohol (DAA) at 20° C.
Description: For the cyanine dyes in Table 1, they were measured in a conventional manner for solubility in […] at 20° C. In parallel, conventional related compounds represented by Chemical Formulae 73 to 76 were also measured for solubility in DAA in a similar way.

[2] = Decomposition point of cyanine dye by DTA/TGA; type: physicochemical; conditions: temperature at which specimen begins to lose weight on TGA; heating rate 10° C./min
Text: An adequate amount of any one of the cyanine dyes in Table 1 as a test specimen was placed in a vessel and subjected to conventional differential thermal analysis (hereinafter abbreviated as “DTA”) and thermogravimetric analysis (hereinafter abbreviated as “TGA”) using “MODEL TG/DTA 220”, a digital thermo analyzer commercialized by Seiko Instruments Inc., Tokyo, Japan, to determine their decomposition points, i.e., temperatures at which the cyanine dyes as test specimens begin to lose their weight on TGA. In parallel, conventional related compounds represented by Chemical Formulae 73 and 76 were analyzed similarly as above. […] In DTA and TGA, the environmental temperature was set to an increasing temperature mode at a rate of 10° C./min.

[3] = diacetone alcohol (DAA), 20 °C, organic solvent or mixture, read-out: Solubility

Row | Solubility [1] [mg/mL] | Decomposition point (° C.) [2] [°C] | Solubility [1, 3] [mg/mL] | SMILES
1 | 143 | 264.7 |  | CCCCN1C(=CC=CC2=[N+](C)c3ccc4ccccc4c3C2(C)C)C(C)(C)c2c1ccc1ccccc21 [Chemical Formula 13]
2 |  | 261.3 | 64 | CCCC[N+]1=C(C=CC=C2N(C)c3c(ccc4ccccc34)C2(C)C)C(C)(C)c2c1ccc1ccccc21 [Chemical Formula 50]
3 |  | 269.0 | 19 | CCCCN1C(=CC=CC2=[N+](CCC)c3ccc4ccccc4c3C2(C)C)C(C)(C)c2c1ccc1ccccc21 [Chemical Formula 75, reference compound]
4 |  | 314.5 | 1.1 | CN1C(=CC=CC2=[N+](C)c3ccc4ccccc4c3C2(C)C)C(C)(C)c2c1ccc1ccccc21 [Chemical Formula 16]
5 | 23 | 281.6 |  | CCCCN1C(=CC=CC2=[N+](CC)c3ccc4ccccc4c3C2(C)C)C(C)(C)c2c1ccc1ccccc21 [Chemical Formula 19]
6 | 73 | 279.8 |  | CCCCN1C(=CC=CC2=[N+](C)c3ccc4ccccc4c3C2(C)C)C(C)(C)c2c1ccc1ccccc21 [Chemical Formula 14]
7 |  | 301.9 | 2.8 | CCCN1C(=CC=CC2=[N+](CC)c3ccc4ccccc4c3C2(C)C)C(C)(C)c2c1ccc1ccccc21 [Chemical Formula 21]
8 | 22 | 211.5 |  | CCCCN1C(=CC=CC2=[N+](CC)c3ccc4ccccc4c3C2(C)C)C(C)(C)c2c1ccc1ccccc21 [Chemical Formula 74, reference compound]
9 | 17 | 266.1 |  | CCCCN1C(=CC=CC2=[N+](CCCC)c3ccc4ccccc4c3C2(C)C)C(C)(C)c2c1ccc1ccccc21 [Chemical Formula 76, reference compound]
10 |  | 304.7 | 2.7 | CN1C(=CC=CC2=[N+](C)c3ccc4ccccc4c3C2(C)C)C(C)(C)c2ccc3ccccc3c21 [Chemical Formula 43]
11 | 6.4 | 280.1 |  | CCCCN1/C(=C\C=C\C2=[N+](CCCC)c3ccc4ccccc4c3C2(C)C)C(C)(C)c2c1ccc1ccccc21 [Chemical Formula 35]
12 | 140 | 281.8 |  | CCCCN1C(=CC=CC2=[N+](CC)c3ccc4ccccc4c3C2(C)C)C(C)(C)c2c1ccc1ccccc21 [Chemical Formula 20]
13 | 42 | 242.2 |  | CCCCN1C(=CC=CC2=[N+](C)c3ccc4ccccc4c3C2(C)C)C(C)(C)c2c1ccc1ccccc21 [Chemical Formula 73, reference compound]
14 | 61 | 284.2 |  | CCCCN1C(=CC=CC2=[N+](CCCC)c3ccc4ccccc4c3C2(C)C)C(C)(C)c2c1ccc1ccccc21 [Chemical Formula 33]
